Where a name gives a salt, the structure may show the parent alone.
Columns and labels:
[1] = molecular target: T1, human S1P1 receptor (Homo sapiens, UniProt P21453); assay: S1P1 GTPγS binding assay (and alternative method); assay type: biochemical; conditions: in one of the above S1P1 GTPγS binding assays (first or alternative method, RH7777 membranes)
T1 construct: expressed in transfected cells; membranes
Method: For membrane preparations all steps were performed at 4° C. Rat hepatoma cells stably expressing the human S1P1 receptor or Rat Basophilic Leukaemia cells (RBL) stably expressing human S1P3 receptor were grown to 80% confluency before being harvested into 10 ml Phospho-Buffered Saline (PBS) and centrifuged at 1200 rpm […]. After removal of the supernatant, the pellet was re-suspended and cells were homogenised within a glass Waring blender for 2 bursts of 15 secs in 200 mls of buffer (50 mM HEPES, 1 mM leupeptin, 25 μg/ml bacitracin, 1 mM EDTA, 1 mM PMSF, 2 μM pepstatin A). The blender was plunged into ice for 5 mins after the first burst and 10-40 mins after the final burst to allow foam to dissipate. The material was then spun at 500 g for 20 mins and the supernatant spun for 36 mins at 48,000 g. The pellet was resuspended in the same buffer as above but without PMSF and pepstatin A. The material was then forced through a 0.6 mm needle, made up to the required volume, (usually ×4 the volume of the original cell pellet), aliquoted and stored frozen at −80° C. Human S1P1 rat hepatoma membranes (1.5 μg/well) were adhered to a wheatgerm agglutinin (WGA)-coated scintillation proximity assay (SPA) beads (0.125 mg/well) in assay buffer (HEPES 20 mM, MgCl2 10 mM, NaCl 100 mM and pH adjusted to 7.4 using KOH 5M, GDP 10 μM FAC (final assay concentration) and saponin 90 μg/ml FAC was also added). After 30 minutes pre-coupling on ice the bead and membrane suspension was dispensed into a white Greiner polypropylene LV384-well plate (5 μl/well), containing 0.1 μl of the compound. 5 μl/well [^35S]-GTPγS (0.5 nM final radioligand conc) made up in assay buffer was then added to agonist plates. The final assay cocktail […] was then centrifuged at 1000 rpm for 5 minutes then read immediately on a Viewlux reader. All test compounds were dissolved in DMSO at a concentration of 10 mM and were prepared in 100% DMSO using a 1 in 4 dilution step to provide 11 point dose response curves. The dilutions were transferred to the assay plates ensuring that the DMSO concentration was constant across the plate for all assays. All data was normalized to the mean of 16 high and 16 low control wells on each plate. A four parameter curve fit was then applied. S1P1 expressing RH7777 membranes (1.5 μg/well) […] were homogenised by passing through a 23G needle. These were then adhered to WGA-coated SPA beads (0.125 mg/well) in assay buffer (HEPES 20 mM, MgCl2 10 mM, NaCl 100 mM and pH adjusted to 7.4 using KOH 5M). GDP 10 μM FAC and saponin 90 μg/ml FAC were also added After 30 minutes precoupling on ice, the bead and membrane suspension was dispensed into white Greiner polypropylene LV 384-well plates (5 μl/well), containing 0.1 μl of compound. 5 μl/well [^35S]-GTPγS (0.5 nM for S1P1 or 0.3 nM for S1P3 final radioligand concentration) made in assay buffer was then added to the plates. The final assay cocktail (10.1 μl) was then sealed, spun on a centrifuge, then read immediately on a Viewlux instrument.

[2] = molecular target: T2, human S1P3 receptor (Homo sapiens, UniProt Q99500); assay: S1P3 GTPγS binding assay (and alternative method); assay type: biochemical; conditions: in one of the above S1P3 GTPγS binding assays (first or alternative method, RBL membranes)
T2 construct: expressed in transfected cells; membranes
Method: For membrane preparations all steps were performed at 4° C. Rat hepatoma cells stably expressing the human S1P1 receptor or Rat Basophilic Leukaemia cells (RBL) stably expressing human S1P3 receptor were grown to 80% confluency before being harvested into 10 ml Phospho-Buffered Saline (PBS) and centrifuged at 1200 rpm […]. After removal of the supernatant, the pellet was re-suspended and cells were homogenised within a glass Waring blender for 2 bursts of 15 secs in 200 mls of buffer (50 mM HEPES, 1 mM leupeptin, 25 μg/ml bacitracin, 1 mM EDTA, 1 mM PMSF, 2 μM pepstatin A). The blender was plunged into ice for 5 mins after the first burst and 10-40 mins after the final burst to allow foam to dissipate. The material was then spun at 500 g for 20 mins and the supernatant spun for 36 mins at 48,000 g. The pellet was resuspended in the same buffer as above but without PMSF and pepstatin A. The material was then forced through a 0.6 mm needle, made up to the required volume, (usually ×4 the volume of the original cell pellet), aliquoted and stored frozen at −80° C. […] The final assay cocktail (10.1 μl) was centrifuged at 1000 rpm for 5 minutes then read immediately on a Viewlux reader. […] The final assay cocktail (10.1 μl) was then sealed, spun on a centrifuge, then read immediately on a Viewlux instrument.

T1 sequence (P21453 whole entry): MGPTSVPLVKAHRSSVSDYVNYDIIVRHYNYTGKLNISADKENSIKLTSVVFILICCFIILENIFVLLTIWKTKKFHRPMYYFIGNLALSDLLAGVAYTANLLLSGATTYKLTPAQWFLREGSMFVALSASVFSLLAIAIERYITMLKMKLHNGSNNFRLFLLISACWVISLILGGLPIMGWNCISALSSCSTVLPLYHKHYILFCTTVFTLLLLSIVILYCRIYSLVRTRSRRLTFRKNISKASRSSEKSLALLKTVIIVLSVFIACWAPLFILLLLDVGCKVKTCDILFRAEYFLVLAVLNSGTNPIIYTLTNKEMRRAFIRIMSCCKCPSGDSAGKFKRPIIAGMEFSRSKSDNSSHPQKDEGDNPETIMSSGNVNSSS
T2 sequence (Q99500 whole entry): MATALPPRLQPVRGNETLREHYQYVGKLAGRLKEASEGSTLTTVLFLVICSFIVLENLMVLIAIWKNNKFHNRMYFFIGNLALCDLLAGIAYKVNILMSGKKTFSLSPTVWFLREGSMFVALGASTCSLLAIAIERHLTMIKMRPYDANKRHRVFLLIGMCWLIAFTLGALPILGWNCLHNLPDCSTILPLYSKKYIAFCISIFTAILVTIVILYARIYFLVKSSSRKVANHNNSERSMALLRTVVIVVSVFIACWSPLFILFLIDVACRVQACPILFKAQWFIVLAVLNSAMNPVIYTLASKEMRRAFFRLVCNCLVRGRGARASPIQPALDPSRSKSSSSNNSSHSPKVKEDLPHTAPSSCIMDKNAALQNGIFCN

| EC50 [1] | EC50 [2] | SMILES |
| --- | --- | --- |
| ≤ 10 nM | – | CC(C)Oc1ccc(-c2nc(-c3cccc4c(CCC(=O)O)nccc34)no2)cc1C#N [Example 26, 3-[5-(5-{3-Cyano-4-[(1-methylethyl)oxy]phenyl}-1,2,4-oxadiazol-3-yl)-1-isoquinolinyl]propanoic acid hydrochloride] |
| ≤ 10 nM | 3160 nM | CC(C)Oc1ccc(-c2nc(-c3cccc4c(N5CCC(C(=O)O)CC5)nccc34)no2)cc1Cl [Example 4, 1-[5-(5-{3-Chloro-4-[(1-methylethyl)oxy]phenyl}-1,2,4-oxadiazol-3-yl)-1-isoquinolinyl]-4-piperidinecarboxylic acid lithium salt] |
| ≤ 10 nM | – | O=C(O)CCc1nccc2c(-c3noc(-c4ccc(OCC(F)(F)F)c(Cl)c4)n3)cccc12 [Example 24, 3-[5-(5-{3-Chloro-4-[(2,2,2-trifluoroethyl)oxy]phenyl}-1,2,4-oxadiazol-3-yl)-1-isoquinolinyl]propanoic acid hydrochloride] |
| ≤ 10 nM | – | CC(C)Oc1ncc(-c2nc(-c3cccc4c(CCCC(=O)O)nccc34)no2)cc1Cl [Example 30, 4-[5-(5-{5-Chloro-6-[(1-methylethyl)oxy]-3-pyridinyl}-1,2,4-oxadiazol-3-yl)-1-isoquinolinyl]butanoic acid] |
| ≤ 10 nM | – | CC(C)Oc1ncc(-c2nc(-c3cccc4c(CCC(=O)O)nccc34)no2)cc1Cl [Example 27, 3-[5-(5-{5-Chloro-6-[(1-methylethyl)oxy]-3-pyridinyl}-1,2,4-oxadiazol-3-yl)-1-isoquinolinyl]propanoic acid] |
| ≤ 10 nM | – | CC(C)Oc1ccc(-c2nc(-c3cccc4c(CCC(=O)O)nccc34)no2)cc1Cl [Example 1, 3-[5-(5-{3-Chloro-4-[(1-methylethyl)oxy]phenyl}-1,2,4-oxadiazol-3-yl)-1-isoquinolinyl]propanoic acid lithium salt] |
